# Values of other authors, collected in patent US20170173059A1, “Novel Combination of Naturally Occurring Compounds to Assist With Suspected Mycobacterial Infections Related to Autoimmune Conditions” (priority 2015, published 2017).
# “Also recorded” adds a separate entry of the source. Where two headings read alike, the source gives them in different places.
# Columns and labels:
# MAP = conditions: bovine and human MAP strains, radiometric culture
# [1] = tested on: Mycobacterium avium subspecies paratuberculosis (MAP); conditions: selected strains of MAP
# [2] = material data safety sheets / classification
# [3] = tested on: multidrug resistance pumps (MDR pumps)
# M. avium = conditions: radiometric culture
# M.Tb = conditions: radiometric culture
# 5-lipoxygenase = target: T1, 5-lipoxygenase (Homo sapiens, UniProt P09917)
# T1 sequence (P09917 1-674): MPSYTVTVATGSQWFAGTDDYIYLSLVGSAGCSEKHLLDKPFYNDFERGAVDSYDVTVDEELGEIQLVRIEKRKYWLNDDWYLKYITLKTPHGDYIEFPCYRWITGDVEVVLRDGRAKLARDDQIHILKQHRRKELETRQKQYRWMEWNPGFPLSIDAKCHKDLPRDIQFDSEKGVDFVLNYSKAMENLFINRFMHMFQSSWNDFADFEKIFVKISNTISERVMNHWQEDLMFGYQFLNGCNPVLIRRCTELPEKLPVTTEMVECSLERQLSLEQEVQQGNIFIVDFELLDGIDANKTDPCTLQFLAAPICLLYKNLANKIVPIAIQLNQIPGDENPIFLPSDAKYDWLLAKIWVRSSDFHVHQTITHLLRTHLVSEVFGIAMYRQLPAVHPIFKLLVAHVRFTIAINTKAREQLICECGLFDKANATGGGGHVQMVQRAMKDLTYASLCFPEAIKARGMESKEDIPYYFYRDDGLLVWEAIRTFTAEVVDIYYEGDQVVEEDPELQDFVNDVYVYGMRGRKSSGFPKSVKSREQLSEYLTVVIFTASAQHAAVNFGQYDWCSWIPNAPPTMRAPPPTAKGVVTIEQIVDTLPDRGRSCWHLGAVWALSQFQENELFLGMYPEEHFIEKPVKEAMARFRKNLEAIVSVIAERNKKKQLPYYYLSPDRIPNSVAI
# [4] = tested on: patients with inflammatory bowel disease; conditions: Boswellia group versus sulfasalazine control group
compound,measurement,setting,value
CC1=C(/C=C/C(C)=C/C=C/C(C)=C\C(=O)O)C(C)(C)CCC1 [13 cis-retinoic acid],inhibition of MAP strains in vitro,MAP,inhibitory effects
CC1(C)S[C@@H]2[C@H](NC(=O)[C@H](N)c3ccc(O)cc3)C(=O)N2[C@H]1C(=O)O [Amoxicillin],action against the family of mycobacteria,family of mycobacteria,little to no action
O=CC=Cc1ccccc1 [Cinnamaldehyde],inhibition of MAP in vitro,[1],shown to inhibit
same,safety listing (GRAS),[2],GRAS
"COc1cc(C2Oc3cc(-c4cc(=O)c5c(O)cc(O)cc5o4)ccc3OC2CO)cc(OC)c1O (stereo not drawn) [Example 5-MHC, 5-methoxyhydnocarpin]",multi-drug resistance pump inhibition,[3],multi-drug resistance pump inhibitor
Cc1ncc([N+](=O)[O-])n1CCO [Metronidazole],action against the family of mycobacteria,family of mycobacteria,little to no action
CC[C@@]1([C@@H]2O[C@@H]([C@H]3O[C@@](O)(CO)[C@H](C)C[C@@H]3C)C[C@@H]2C)CC[C@H]([C@]2(C)CC[C@]3(C[C@H](O)[C@@H](C)[C@@H]([C@@H](C)[C@@H](OC)[C@H](C)C(=O)O)O3)O2)O1 [Monensin],inhibition of MAP strains in vitro,MAP,displayed inhibition of MAP
"CC1=C(/C=C/C(C)=C/C=C/C(C)=C/CO)C(C)(C)CCC1 [Retinol, (2E,4E,6E,8E)-3,7-Dimethyl-9-(2,6,6-trimethyl-cyclohex-1-enyl)-nona-2,4,6,8-tetraen-1-ol]",inhibition of M. avium,M. avium,strong inhibitory effect
same,inhibition of MAP strains in vitro,MAP,strong inhibitory effect
same,inhibition of M.Tb,M.Tb,strong inhibitory effect
O=C/C=C/c1ccccc1 [Trans-cinnamaldehyde],inhibition of MAP in vitro,[1],shown to inhibit
same,safety listing (GRAS),[2],GRAS
"C=C1CC[C@H](O)C/C1=C/C=C1\CCC[C@]2(C)[C@@H]([C@H](C)CCCC(C)C)CC[C@@H]12 [Vitamin D3, cholecalciferol]",inhibition of MAP strains in vitro,MAP,shown inhibition
same,anti-neoplastic activity in colon tissue,colon tissue,specific anti-neoplastic activity
same,anti-neoplastic activity in colon tissue,colon tissue; listed as D3,protect against neoplastic development
CC(=O)O[C@@H]1CC[C@@]2(C)[C@@H](CC[C@]3(C)[C@@H]2C(=O)C=C2[C@@H]4[C@@H](C)[C@H](C)CC[C@]4(C)CC[C@]23C)[C@@]1(C)C(=O)O [acetyl-11-keto-beta-boswellic acid],effect on 5-lipoxygenase,5-lipoxygenase,influenced
CC(=O)OC/C=C(C)/C=C/C=C(C)/C=C/C1=C(C)CCCC1(C)C [retinyl acetate],inhibition of MAP strains in vitro,MAP,inhibitory effects; also recorded: highest inhibition of the group
O=C(O)c1cc(/N=N/c2ccc(S(=O)(=O)Nc3ccccn3)cc2)ccc1O [sulfasalazine],remission rates,[4],75%
CC1=C(/C=C/C(C)=C/C=C/C(C)=C/C=C/C=C(C)/C=C/C=C(C)/C=C/C2=C(C)CCCC2(C)C)C(C)(C)CCC1 [β carotene],inhibition of MAP strains in vitro,MAP,inhibitory effects
Vitamin A,inhibition of MAP strains in vitro,MAP,in vitro inhibition
same,inhibition of MAP strains in vitro,MAP; listed as vitamin A,found to inhibit
